Some test systems named below: BT-549; HT-29; NCI-H23; NCI/ADR-RES; Malme-3M; ACHN; HOP-92; Hs-578T; NCI-H522; UACC-257; U-251; RXF 393; OVCAR-4; CCRF-CEM; SR; HCC 2998; HOP-62; MDA-MB-435; SK-MEL-2.
Holding throughout (experiment): NCI tumour cell line growth inhibition, 48 h

From ChEMBL document CHEMBL1201862, “PubChem BioAssay data set” (2004) come the findings set out here.

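The compound was tested at five concentrations on cells cultured in 96-well plates, with a 48-hour exposure period. GI50: concentration for 50% inhibition of growth.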 Calls of active or inactive are those of the source. Cut-off read from the data, not from the text of the source: active = GI50 up to about 1.1 µM and inactive = higher.

Turning to `CC(/C=N/N=C1NCCCCN1)=N\N=C1NCCCCN1`, the GI50 in the assay with BT-549 is > 100 µM (inactive); with HT-29, 84.1 µM (inactive); in the assay with NCI-H23, > 100 µM (inactive); in the assay on NCI/ADR-RES it was > 100 µM (inactive); with Malme-3M, 35.8 µM (inactive); in the assay with ACHN, > 100 µM (inactive). The GI50 in the assay on HOP-92 was 37.9 µM (inactive); in the assay on Hs-578T it was > 100 µM (inactive); with NCI-H522, > 100 µM (inactive); with UACC-257, 47.6 µM (inactive); in the assay on U-251 it was > 100 µM (inactive); in the assay with RXF 393, > 100 µM (inactive). For the same molecule, the GI50 with OVCAR-4 was > 100 µM (inactive); with CCRF-CEM, > 100 µM (inactive); with SR, 73.3 µM (inactive); in the assay on HCC 2998, > 100 µM (inactive); in the assay with HOP-62 it was > 100 µM (inactive); in the assay with MDA-MB-435, 47.9 µM (inactive).

For `NCC(=O)Nc1ccccc1`, the GI50 with BT-549, in the assay with HT-29, in the assay with NCI-H23, with NCI/ADR-RES, in the assay on Malme-3M and in the assay with ACHN was > 100 µM (inactive) throughout. Besides, the GI50 was > 100 µM (inactive) in the assay on HOP-92; 87.7 µM (inactive) in the assay with SK-MEL-2; > 100 µM (inactive) in the assay with Hs-578T; > 100 µM (inactive) with NCI-H522; > 100 µM (inactive) with UACC-257; > 100 µM (inactive) with U-251. Besides, the GI50 in the assay on RXF 393, with OVCAR-4, in the assay with SR, in the assay on HCC 2998, in the assay on HOP-62 and with MDA-MB-435 was > 100 µM (inactive) in each case.

Regarding `COc1cc2c3cc1Oc1c(OC)c(OC)cc4c1C(Cc1ccc(O)c(c1)-c1cc(ccc1OC)CC3N(C)CC2)N(C)CC4` (configuration not stated), the GI50 was 19.7 µM (inactive) with BT-549; 6.92 µM (inactive) with HT-29; 21.4 µM (inactive) with NCI-H23; 25.9 µM (inactive) with NCI/ADR-RES; 18.2 µM (inactive) in the assay on Malme-3M; 15.8 µM (inactive) with ACHN. Further, the GI50 in the assay with HOP-92 was 20.2 µM (inactive); in the assay with SK-MEL-2, 19.5 µM (inactive); with Hs-578T it was 21.3 µM (inactive); in the assay with NCI-H522, 11.5 µM (inactive); with UACC-257 it was 21 µM (inactive); in the assay with U-251, 28.1 µM (inactive). Besides, the GI50 in the assay on RXF 393 is 1.96 µM (inactive); in the assay on OVCAR-4, 29.4 µM (inactive); with SR, 0.659 µM (active); with HCC 2998, 17.2 µM (inactive); in the assay with MDA-MB-435 it was 23.6 µM (inactive).

With `CCCC1=C(OC)C(=O)c2c(C)cc(Cl)nc2C1=O`, the GI50 in the assay on BT-549 was 13.6 µM (inactive); in the assay on HT-29 it was 4.3 µM (inactive); in the assay on NCI-H23 it was 4.11 µM (inactive); in the assay on NCI/ADR-RES it was 4.55 µM (inactive); with Malme-3M it was 3.02 µM (inactive); in the assay on ACHN it was 6.92 µM (inactive). Besides, the GI50 in the assay with HOP-92 is 5.79 µM (inactive); in the assay with SK-MEL-2, 10.5 µM (inactive); in the assay with Hs-578T it was 3.75 µM (inactive); with NCI-H522, 2.43 µM (inactive); in the assay with UACC-257, 6.53 µM (inactive); with U-251, 6.07 µM (inactive). Further, the GI50 in the assay on RXF 393 is 7.67 µM (inactive); with OVCAR-4, 6.37 µM (inactive); in the assay with CCRF-CEM, 0.286 µM (active); in the assay with SR it was 2.11 µM (inactive); in the assay with HCC 2998, 7.62 µM (inactive); in the assay on HOP-62, 15.5 µM (inactive). For the same molecule, the GI50 in the assay with MDA-MB-435 is 1.84 µM (inactive).

Turning to `CN(C)/C=N/S(=O)(=O)c1nn2c(C=O)c(-c3ccc(-c4ccccc4)cc3)nc2s1`, the GI50 with BT-549 was 0.83 µM (active); in the assay with HT-29, 0.347 µM (active); in the assay on NCI-H23, 1.78 µM (inactive); in the assay with NCI/ADR-RES, 8.57 µM (inactive); with Malme-3M, 1.32 µM (inactive); in the assay on ACHN, 1.57 µM (inactive). For the same molecule, the GI50 is 2.65 µM (inactive) with HOP-92; 2.69 µM (inactive) with SK-MEL-2; 3.09 µM (inactive) in the assay on Hs-578T; 0.385 µM (active) in the assay on NCI-H522; 2.97 µM (inactive) in the assay with UACC-257; 2.01 µM (inactive) with U-251. The GI50 in the assay with RXF 393 was 1.71 µM (inactive); in the assay on OVCAR-4 it was 1.96 µM (inactive); in the assay with CCRF-CEM, 0.145 µM (active); in the assay on SR, 0.49 µM (active); in the assay with HCC 2998 it was 6 µM (inactive); in the assay with HOP-62, 8.61 µM (inactive). Besides, in the assay on MDA-MB-435, the GI50 was 1.69 µM (inactive).

For the molecule `O=C1Cc2c(-c3ccccc3)cc(-c3ccc4ccccc4c3)nc2-c2ccccc2N1`, the GI50 with BT-549 was 27.4 µM (inactive); in the assay with HT-29 it was 3.31 µM (inactive); with NCI-H23 it was 6.4 µM (inactive); in the assay on NCI/ADR-RES it was 13.2 µM (inactive); in the assay with Malme-3M, 7.06 µM (inactive); in the assay on ACHN, 3.72 µM (inactive). Besides, the GI50 in the assay with HOP-92 was 4.05 µM (inactive); with SK-MEL-2 it was 43.9 µM (inactive); in the assay with Hs-578T it was 2.96 µM (inactive); in the assay with NCI-H522 it was 3.25 µM (inactive); with UACC-257 it was 22.3 µM (inactive); with U-251 it was 16.4 µM (inactive). The GI50 in the assay with RXF 393 is 2.9 µM (inactive); in the assay with OVCAR-4, 2.9 µM (inactive); in the assay with CCRF-CEM, > 100 µM (inactive); in the assay on SR, 39.3 µM (inactive); in the assay with HCC 2998 it was 22.6 µM (inactive); with HOP-62, 7.52 µM (inactive). Further, in the assay on MDA-MB-435, the GI50 was 17.2 µM (inactive).

Regarding `CC[C@@]1(O)C(=O)OCc2c1cc1n(c2=O)Cc2c-1nc1ccccc1c2/C=N\NC(=O)C1CCCN1` (some centres not stated), the GI50 was 1.49 µM (inactive) in the assay with BT-549; 1.15 µM (inactive) in the assay on HT-29; 0.0509 µM (active) in the assay with NCI-H23; 0.513 µM (active) with NCI/ADR-RES; 1.79 µM (inactive) with Malme-3M; 0.0283 µM (active) in the assay on ACHN. Besides, the GI50 with HOP-92 was 0.601 µM (active); in the assay on SK-MEL-2, 11.8 µM (inactive); in the assay on Hs-578T, 22.5 µM (inactive); with NCI-H522 it was 0.282 µM (active); in the assay with UACC-257 it was 3.01 µM (inactive); in the assay on U-251, 0.0362 µM (active). Further, the GI50 in the assay with RXF 393 is 0.364 µM (active); in the assay on OVCAR-4, 19.6 µM (inactive); with SR, < 0.01 µM (active); with HCC 2998 it was 1.98 µM (inactive); in the assay with HOP-62, < 0.0196 µM (active); in the assay with MDA-MB-435 it was 2 µM (inactive).

With `Nc1nc(=S)n(-c2ccc(Cl)cc2)c2nc3ccccc3cc12`, the GI50 in the assay with BT-549 was 19.1 µM (inactive); in the assay with HT-29 it was 79.6 µM (inactive); with NCI-H23, 56.9 µM (inactive); in the assay with NCI/ADR-RES, > 100 µM (inactive); with Malme-3M it was 32.5 µM (inactive); with ACHN, 18.8 µM (inactive). Moreover, the GI50 in the assay with HOP-92 was 9.82 µM (inactive); in the assay on SK-MEL-2, 49.7 µM (inactive); in the assay on Hs-578T it was 83.2 µM (inactive); in the assay on NCI-H522, 45.3 µM (inactive); with UACC-257, > 100 µM (inactive); in the assay on U-251, 48.9 µM (inactive). Besides, the GI50 in the assay with RXF 393 was 57.9 µM (inactive); in the assay on OVCAR-4, 46.7 µM (inactive); in the assay on CCRF-CEM it was 42.4 µM (inactive); with SR, 16.1 µM (inactive); with HCC 2998, 64.6 µM (inactive); in the assay with HOP-62 it was 55.8 µM (inactive). Further, the GI50 in the assay on MDA-MB-435 is 80.4 µM (inactive).
